Measurements: a melting point compilation (Tetko et al.; mined from patent text by program, amines drawn as free bases though some values may be those of a salt)

melting point [°C] | SMILES
117 to 119 | CCN(CC)CCN1Cc2nc3ccccc3c(=O)n2-c2ccccc2C1=O
205 to 206 | CCOc1cc(Cc2cnc(N)nc2N)cc(OCC)c1C(O)CS(C)(=O)=O (stereo not drawn)
72 to 75 | c1ccc(COc2ccc(NC3Cc4ccccc4C3)cc2)cc1
54 | COCOc1c(-c2ccccc2)sc2ncccc12
143 to 145 | Cc1nc(OCCN2CCOCC2)c([N+](=O)[O-])c(N2CCc3ccccc3CC2)n1
192 to 194 | CCOC(=O)c1cc(=O)c2ccc(N)cc2o1
202 to 203 | CCOC(=O)CC(=O)Nc1nc(-c2ccc(OC)cc2)c(-c2cccnc2)s1
45 | CCOC(=O)CN1[C@H](C)CN(c2ccc(N)cc2C#N)C[C@@H]1C
193 to 195 | O=C1c2cccnc2CCCC1Br (stereo not drawn)
41 to 43 | Clc1ccc(C#CCBr)cc1
91 to 92 | COC(CNC(=O)C=CC(=O)O)OC
212 | CN1CCN(c2ccc(N)c(C(=O)O)c2)CC1
113 to 114 | CC(C)(C)C(=O)Oc1ccc(C(=O)c2ccc(Cl)cc2)cc1
250 | CCCCc1nc2c(C(=O)O)cccc2n1Cc1ccc(C(=O)O)cc1
157 to 159 | COc1ccc(C(=O)N2c3ccccc3C(n3c4ccccc4c4ccccc43)CC2CCCCCOc2ccc(F)cc2)cc1OC (stereo not drawn)
> 250 | COc1cc(OC)cc(N2CCC(c3c(N)nc(N)[nH]c3=O)CC2)c1
78 to 79 | CCOC(=S)Nc1cccc(Cl)c1
106 to 108 | COC(=O)C(=Cc1cc(OC)cc(OC)c1)c1ccc(O)cc1
128 to 130 | CN1C(=O)Cc2cc(F)ccc21
265 | NC(=O)N1C(=O)C(C(=O)c2cccs2)c2ncc(F)cc21 (stereo not drawn)
76 to 77 | CCOC(=O)C(CCCc1ccccc1)(NC(C)=O)C(=O)OCC
202 | CC(=O)NCCCc1c(N)ccc2c1C(=O)c1ccccc1C2=O
143 | CCN(CC)C(=O)c1cncc(OC2SCC(O)C(O)C2O)c1 (stereo not drawn)
165 to 166 | CCN1C(=O)C(C)(C)C(=O)N(C)c2cc(CCN(CCn3cc(C)c4occc4c3=O)Cc3cnccc3C)ccc21

melting point [°C] | SMILES
194 to 196 | O=C(Oc1ccc([N+](=O)[O-])cc1)c1cccc2c(Cl)c3ccccc3nc12
206 to 207 | COc1cc(-n2cc(F)c(F)c2)ccc1-n1cc(OC)c(=O)c(-c2ccnn2-c2ccccc2)n1
145 to 147 | COC(=O)c1ccc(Cl)cc1NC(=O)CSc1ccc(N)cc1
163 to 164 | CCn1nc(OCC(=O)c2cccs2)c(-c2ccc(F)cc2)c1-c1ccc(S(C)(=O)=O)cc1
108 to 110 | CN(Cc1cc2c3c(c1)c(=O)c(C(=O)NCc1ccc(F)cc1)cn3CC(=O)N2C)C[C@@H](O)c1cccnc1
162 to 164 | Cc1ccc(Cl)cc1NC(=S)NCC(N)=O
99 to 100 | C[C@@H]1C[C@H](I)[C@@H]2C[C@H]1C(=O)O2
126 to 127 | CCOC(=O)c1cc2cc(OCCCOC)cc(NS(=O)(=O)c3ccccn3)c2[nH]1
75 to 77 | COc1ccc2c(c1)CCC1=C2CCC(=O)C1
192 | N#CC(=C(O)C1CCN(Cc2ccccc2)CC1)c1ccccc1
132 | c1ccc(CNc2ccnc3ccccc23)cc1
140 to 141 | CCCCc1nc2c(C(F)(F)F)cccc2c(O)c1C(=O)O
190 to 191 | CCOc1cc2c(cc1OCC)C(C=Cc1ccc(O)c(OC)c1)=NN=C(C)C2
200 to 201 | O=C(O)c1ccc(-c2cccc3cc(Cc4cccc(C(F)(F)F)c4)sc23)cc1
161 to 162 | CC(=O)NCc1ccc2c(c1)N(C1CCN(CCc3cccc(F)c3)CC1)CC2
200 to 202 | Cc1c(Nc2c(C#N)cncc2-c2cnc(C=O)n2C)ccc2[nH]ccc12
140 to 141 | Cc1nc(N2CCCC(CCCc3ccccc3)C2=O)sc1C(=O)NCc1ccccc1 (stereo not drawn)
192 to 195 | COc1cc2c(c3c1OC(C)(C)C3)C(c1ccc(N)cc1)=NC(C)(C)C2
115 to 116 | COC(=O)c1ccc(=O)n(CCCNC(=O)c2ccccn2)c1
> 300 | COc1cc2c(cc1-c1ccccc1)CCCc1c-2nc2ccc(F)cc2c1C(=O)O
> 300 | CCCn1ncc2c(C3C(=O)Nc4ccc(C#N)cc43)ncnc21 (stereo not drawn)
103 to 106 | OCCOC(c1ccccc1)(c1ccccc1)c1ccccc1
95 to 102 | CCCCCCCCCCCCc1cn(C(C(=O)Nc2c(OC)cc(OC)cc2OC)c2ccccc2)cn1 (stereo not drawn)
157 | S=C1CCCC(c2ccc(Br)cc2)N1 (stereo not drawn)

melting point [°C] | SMILES
229 | O=C(/C=C/c1ccc2ccccc2c1)Nc1cc(Cl)c(Cl)cc1S(=O)(=O)O
208 to 212 | COc1cc2c(Nc3ccc(Cl)cc3F)ncnc2cc1OCCN(C)c1cc(C)nc(C)c1
209 to 210 | CN1C(C(=O)Nc2cncc(Cl)n2)=C(O)c2ccc3ccccc3c2S1(=O)=O
154 to 155 | CCSc1cc(C(=O)O)cc(N)c1Oc1ccccc1
142 to 145 | CCCCC(=N)NC(=S)Nc1cccc(Cl)c1
94 to 95 | Cc1ccc(O[C@@H](Cc2ccc(O)cc2)C(=O)OCC[Si](C)(C)C)cc1
147 to 148 | O=C1COCC(=O)NCCOCCOCCN1
232 to 233 | CCC(CC)Cn1c(=O)c(=O)[nH]c2cc(Cl)c([N+](=O)[O-])cc21
211 to 212 | COc1ncc(-c2cc(NC(=O)c3csc(CN4C[C@@H](C)O[C@@H](C)C4)n3)c3cn[nH]c3c2)cc1NS(=O)(=O)c1ccc(F)cc1F
228 to 230 | COC(=O)Nc1cn2nc(OCc3cc(OC)ccc3OC)ccc2n1
245 to 247 | CCN1CCN(c2ccc(Nc3cc(-c4cccc(-n5ncc6cc(C(C)(C)C)cc(F)c6c5=O)c4CO)nn(C)c3=O)nc2)CC1
148 to 150 | O=C(C=Cc1cc(Br)c(O)c(Br)c1)N1CCc2c([nH]c3ccccc23)C1c1ccc2c(c1)OCO2 (stereo not drawn)
156 to 158 | O=C1N(Cc2ccccn2)c2ccc3ncsc3c2C12COc1cc3c(cc12)OCCO3 (stereo not drawn)
147 to 148 | COc1cc2ncnc(N3CCN(C(=S)NC4CCOC4=O)CC3)c2cc1OC (stereo not drawn)
149 to 160 | CC(COc1ccc(O)c(C(N)=O)c1)N(Cc1ccccc1)CC(O)COc1ccc(OCc2ccccc2)cc1 (stereo not drawn)
94 to 97 | Clc1cc(Cl)nc(-c2ccc(Sc3ccccc3)cc2)n1
275 to 280 | CCCCn1c(=O)[nH]c2nc3ccccc3n2c1=O
253 to 254 | COc1ccc2c(=O)c3[nH]c(C(=O)O)cc(=O)c3oc2c1
52 to 55 | CCCCCC(=O)c1cccc(OCc2ccc3ccccc3n2)c1
191 to 193 | CCOCOC1CCC2(C)C(C1)C(=O)CC1C2CCC2(C)C1CC1OC3(CCC(C)CO3)C(C)C12 (stereo not drawn)
250 to 253 | O=C1c2ccccc2C(=O)N1CC(=O)N1c2ccccc2N(Cc2ccccc2F)C(=O)[C@H]2CCC[C@H]21 (relative stereo)
156 to 158 | O=C1CC(c2ccc(-c3ccc(Br)cc3)cc2)Cc2ccccc21 (stereo not drawn)
78 | CC(C)(C)C(=Cc1ccc(Cl)cc1Cl)Cn1cncn1
250 | CCNC(=O)CC1CCN(Cc2cnc3cc(NC(=O)c4ccc(-c5ccc(Cl)cc5)cc4)ccc3c2)CC1

melting point [°C] | SMILES
178 to 179 | Cc1ccc(S(=O)(=O)N(Cc2ccc(C#N)cc2F)C2CCCC2)cc1
203 to 205 | CC(NS(C)(=O)=O)c1ccc2[nH]cc(CCN3C(=O)c4ccccc4C3=O)c2c1 (stereo not drawn)
190 to 192 | CCCSC1=NSc2cc(C)cnc2N1Cc1ccc(-c2ccccc2C#N)cc1
96 to 97 | COC(=O)C(=O)c1ccccc1Oc1cc(Oc2ccccc2C#N)ncn1
256 to 258 | N#Cc1cnc2c(sc3c(N)cccc32)c1Nc1cccc(Br)c1
152 | CCOc1cc(COc2cc(CCC(=O)O)n(-c3ccccc3)n2)cc(COc2ccc(Cl)cc2Cl)c1
182 to 183 | NC(=O)c1c(N)nn(-c2ccccc2)c1N
97 to 102 | C=CCSC(Cc1ccc(Cl)cc1Cl)n1ccnc1 (stereo not drawn)
59 to 60 | O=C1Nc2ccccc2SC1CCCO (stereo not drawn)
209 to 211 | CCNc1nc2cc(Cc3c(C)nc4cc(C)ccn34)ccc2o1
218 to 225 | COc1cc2c(cc1Nc1ncc(Cl)c(Nc3ccccc3S(=O)(=O)N(C)C)n1)CCN(CC(=O)N(C)C)CC2
> 280 | O=c1c2n[nH]c3ccc(Cl)cc3c-2nn1-c1ccccc1
102 to 104 | COc1ccc2c(-c3ccc(Br)cc3)csc2c1
147 to 149 | N#Cc1cccc(CN2C(=O)c3ccccc3C2=O)c1
259 to 261 | O=C(CNc1c(C(=O)O)[nH]c2cc(Cl)cc(Cl)c12)c1ccc(F)cc1
170 to 172 | CCN(Cc1ccccc1Oc1ccccc1)c1ccc(C(=O)O)cn1
65 to 67 | CC(NC(=O)N(Cc1csc(C(C)C)n1)C1CC1)C(=O)NC(Cc1ccccc1)CC(O)C(Cc1ccccc1)NC(=O)OCc1cncs1 (stereo not drawn)
165 to 166 | O=C1c2ccccc2COc2ccc(O)cc21
91 to 92 | CON=C(Cl)c1ccccc1OCc1ccc(Cl)cc1Cl
122 to 125 | COc1ccc(N2CCN(c3c(C)c(C)c4c(c3C)CC(C)(CN3CCCCC3)O4)CC2)cc1 (stereo not drawn)
209 to 210 | CS(=O)(=O)c1ccc(-c2cc(S(C)(=O)=O)nn2-c2ccc(F)cc2)cc1

SMILES | melting point [°C]
CCOC(=O)Nc1nc(C)c(-c2nc3ccccc3c(=O)n2-c2ccc(Cl)cc2)s1 | > 275
CC1(C)NC(=O)N(c2ccc(F)c(C(F)(F)F)c2)C1=O | 111 to 114
CCOC(=O)Cc1ccc2c(c1)C(c1ccccc1Cl)=NCc1nnc(C)n1-2 | 157 to 158
Brc1ccc(OC2CCN(CCc3c[nH]c4ccccc34)CC2)cc1 | 132 to 134
Cc1ccn2ncc(C(=O)NC3CN4CCC3CC4)c2c1 (stereo not drawn) | 100 to 102
